Measured values reported in patent publication US7410966B2, “Use of and some novel imidazopyridines” (AstraZeneca AB, priority 2002, dated 2008).
Counter-ions that a name gives are not always drawn.

These compounds were tested against T1, recombinant human Itk kinase domain fused with GST (Homo sapiens, UniProt Q08881) (assay: Itk LANCE TRF Assay). Settings: 2 μM biotinylated peptide substrate, 50 μM ATP, 50 minutes RT, read-out: Inhibition of Kinase Itk (IC50 μM).
T1 construct: recombinant human Itk kinase domain fused with GST (Glutathione S-Transferase); GST (Glutathione S-Transferase); made in house; host or cells: High Five insect cells
T1 sequence (Q08881 363-615 limits assumed): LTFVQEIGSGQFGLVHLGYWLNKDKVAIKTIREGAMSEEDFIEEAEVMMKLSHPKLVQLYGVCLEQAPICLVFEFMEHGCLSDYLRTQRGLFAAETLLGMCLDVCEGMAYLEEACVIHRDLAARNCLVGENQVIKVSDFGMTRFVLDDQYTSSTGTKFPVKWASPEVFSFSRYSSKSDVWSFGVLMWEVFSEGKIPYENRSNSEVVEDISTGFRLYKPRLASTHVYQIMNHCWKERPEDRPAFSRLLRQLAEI
Assay type: biochemical
Description: The Itk kinase assay utilized recombinant human Itk kinase domain fused with GST (Glutathione S-Transferase). The protein was expressed in High five insect cells, purified in one step on an affinity chromatography glutathione column and stored in 50 mM Tris/HCl (pH 7.6), 150 mM NaCl, 5% (w/v) mannitol, 1 mM DTT, 30% glycerol at −70° C. The kinase substrate used in the assay was a biotinylated peptide derived from the Src-optimal substrate (Nair et al, J. Med. Chem., 38: 4276, 1995; biotin-AEEEIYGEFEAKKKK).
The assay additions were as follows: Test compounds (or controls; 1 μL in 100% DMSO) were added to black 96-well flat-bottomed plates (Greiner 655076) followed by 20 μL Itk in assay buffer and the reaction was started by adding 20 μL ATP and peptide substrate in assay buffer. The assay buffer constitution during, phosphorylation was: 50 mM HEPES (pH 6.8), 10 mM MgCl2, 0.015% Brij 35, 1 mM DTT, 10% glycerol, 160 ng/well Itk, 2 μM peptide substrate and 50 μM ATP. The assay was stopped after 50 minutes (RT) by adding 150 μL ice-cold Stop solution (50 mM Tris/HCl, pH 7.5, 10 mM EDTA, 0.9% NaCl and 0.1% BSA) together with LANCE reagents (2 nM PT66-Eu^3+, Wallac AD0069 and 5 μg/mL Streptavidin-APC, Wallac AD0059. Both concentrations were final in stopped assay solution). The plates were measured on a Wallac 1420 Victor 2 instrument with TRF settings after 1 h incubation, and the ratio (665 signal/615 signal)*10000 was used to calculate the inhibition values. IC50 values were determined using XLfit.

SMILES	IC50
COc1cc(-c2nc3cc(Br)cnc3[nH]2)ccc1OCc1ccccc1 [Example 29, 2-[4-(Benzyloxy)-3-methoxyphenyl]-6-bromo-3H-imidazo[4,5-b]pyridine trifluoroacetate]	0.31 µM
Brc1cnc2[nH]c(-c3ccc(OCCNc4nccs4)cc3)nc2c1 [Example 104, N-{2-[4-(6-Bromo-3H-imidazo[4,5-b]pyridin-2-yl)phenoxy]ethyl}-1,3-thiazol-2-amine bis(trifluoroacetate)]	0.24 µM
OC1CCN(CC(O)COc2ccc(-c3nc4cc(Br)cnc4[nH]3)cc2)C1 (centres unmarked) [Example 124, 1-{3-[4-(6-Bromo-3H-imidazo[4,5-b]pyridin-2-yl)phenoxy]-2-hydroxypropyl}pyrrolidin-3-ol]	0.43 µM
OCCN1CCN(CC(O)COc2ccc(-c3nc4cc(Br)cnc4[nH]3)cc2)CC1 (centres unmarked) [Example 162, 1-[4-(6-Bromo-3H-imidazo[4,5-b]pyridin-2-yl)phenoxy]-3-[4-(2-hydroxyethyl)piperazin-1-yl]propan-2-ol bis(trifluoroacetate)]	0.53 µM
COc1ccc(CNc2ccc(-c3nc4cc(Br)cnc4[nH]3)cc2)cc1 [Example 180, N-[4-(6-Bromo-3H-imidazo[4,5-b]pyridin-2-yl)phenyl]-N-(4-methoxybenzyl)amine bis(trifluoroacetate)]	0.29 µM
Clc1cnc2[nH]c(-c3ccc(OCCN4CCOCC4)cc3)nc2c1N1CCCC1 [Example 236, 6-Chloro-2-[4-(2-morpholin-4-ylethoxy)phenyl]-7-pyrrolidin-1-yl-3H-imidazo[4,5-b]pyridine]	0.41 µM
Cc1ccc(-c2c(Cl)cnc3[nH]c(-c4ccc(OCCN5CCOCC5)cc4)nc23)cc1 [Example 238, 6-Chloro-7-(4-methylphenyl)-2-[4-(2-morpholin-4-ylethoxy)phenyl]-3H-imidazo[4,5-b]pyridine]	0.35 µM
COc1ccc(S(=O)(=O)Nc2ccc(-c3nc4ncc(Cl)c(Cl)c4[nH]3)cc2)cc1 [Example 267, N-[4-(6,7-Dichloro-1H-imidazo[4,5-b]pyridin-2-yl)phenyl]-4-methoxybenzenesulfonamide]	0.26 µM
